Assay results: patent US8273752B2, “Substituted imidazopyrimidines and triazolopyrimidines” (Bayer Intellectual Property GmbH, priority 2007, dated 2012)

Target: T1, GSK3β (Homo sapiens, UniProt P49841)
T1 construct: purchased Upstate xy
Experiment: GSK3β biochemical in vitro assay (fluorescence, NADH-coupled)
Conditions: 5 nM GSK3β, 40 μM substrate GSM, 50 μM ATP, 30° C., 2 hours
Experimental: The inhibitory activity of active substances is determined in a biochemical assay. The ingredients required for this purpose are mixed in a black 384-well microtitre plate with transparent base (from Greiner, catalogue number 781092). The requirements in this connection for each well of the 384-well microtitre plate are 5 nM GSK3β (from Upstate, catalogue number xy), 40 μM GSK3B substrate GSM (sequence H-RRRPASVPPSPSLSRHS-(pS)-HQRR, from Upstate, catalogue number 2-533), 30 μM nicotinamide adenine dinucleotide NADH (Roche Diagnostics, catalogue number 10107735), 50 μM adenosine triphosphate ATP (from Sigma, catalogue number A7966), and 2 mM phosphoenolpyruvate (from Roche, catalogue number 128112). The required reaction buffer in which the biochemical reaction takes place consists of 50 mM Trizma hydrochloride tris-HCl pH: 7.5 (from Sigma, catalogue number T3253), 5 mM magnesium chloride MgCl2 (from Sigma, catalogue number M8266), 0.2 mM DL-dithiothreitol DTT (from Sigma, catalogue number D9779), 2 mM ethylenediaminethertetraacid EDTA (from Sigma, catalogue number E6758), 0.01% Triton X-100 (from Sigma, catalogue number T8787) and 0.05% bovine serum albumin BSA (from Sigma, catalogue number B4287).
Active substances are dissolved in dimethyl sulphoxide DMSO (from Sigma, catalogue number D8418) in a concentration of 10 mM. Active substances are added in serial concentrations of 10 μM, 1 μM, 0.1 μM, 0.01 μM, 0.001 μM, 0.0001 μM, 0.00001 μM, 0.000001 μM to the mixtures of the biochemical reaction. As control, dimethyl sulphoxide is added instead of substance in a final concentration of 0.1%.
The reaction is incubated at 30° C. for 2 hours and then the resulting fluorescence is measured in a Tecan Safire-XFLUOR4 instrument, version V4.50 (serial number 12901300283) with the specifications: measurement mode—fluorescence measured from below, extinction wavelength 340 nm, emission wavelength 465 nm, slit width extinction 5 nm, slit width emission 5 nm, gain mode 120, delay 0 μs, number of light flashes per measurement 3, and an integration time of 40 μs.
The activity of the active substances is calculated in relation to these 0% and 100%.

T1 sequence (P49841 whole entry, species assumed): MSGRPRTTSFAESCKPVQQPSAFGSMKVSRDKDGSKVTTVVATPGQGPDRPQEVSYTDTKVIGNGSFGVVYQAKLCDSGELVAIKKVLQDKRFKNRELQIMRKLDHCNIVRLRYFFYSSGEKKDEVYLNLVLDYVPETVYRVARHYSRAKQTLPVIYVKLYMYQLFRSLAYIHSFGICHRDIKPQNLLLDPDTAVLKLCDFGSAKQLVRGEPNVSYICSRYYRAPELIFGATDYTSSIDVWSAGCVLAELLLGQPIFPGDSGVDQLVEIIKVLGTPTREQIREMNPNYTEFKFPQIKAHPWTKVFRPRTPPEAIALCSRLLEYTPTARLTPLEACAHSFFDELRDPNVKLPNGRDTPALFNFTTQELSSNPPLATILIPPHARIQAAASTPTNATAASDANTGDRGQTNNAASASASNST

IC50 [nM]	Structure (SMILES)
0.7	Nc1nc(NCCNc2nc(-c3ccc(Cl)cc3Cl)cc3nc(CN4CCOCC4)nn23)ccc1C(=O)C(F)(F)F [Example 194]
5	N#Cc1sc(NC2CCCN(c3nc(-c4ccc(Cl)cc4Cl)cc4ncnn34)C2)nc1N (stereo not drawn) [Example 202]
3	Nc1nc(NCCNc2nc(-c3ccc(Cl)cc3Cl)cc3ncnn23)sc1C(=O)C(F)(F)F [Example 203]
